Where “and” joins values, the source holds several entries; their conditions need not be identical. Equal entries are not always repeated.
Experiments:
[1] = tested on: Sprague Dawley (SD) rats; assay: In vivo safety and dose ranging study
[2] = tested on: formaldehyde pain model; assay: In vivo comparative pain-relieving model study (formaldehyde pain model); design: species or system Rabbits; conditions: Test 300 mg/kg orally, reference 150 mg/kg; for Amplitude of rubbing activity, Mean / Amplitude of rubbing activity, Sum: group of 4 rabbits; for Amplitude of rubbing activity, Mean / Amplitude of rubbing activity, Sum / Amplitude of rubbing activity: 60 min post dose of formalin; for No. of rubbings / Amplitude of rubbing activity: individual rabbit; for No. of rubbings: 60 min post dose of formalin (2.5%, 0.1 ml into paw)
Description: 12 Rabbits (M&F) (formaldehyde pain model 6 hr) were divided into 3 groups 4 rabbits in each group, Group-A Test (Acetaminophen phenylbutyrate) and Group-B reference (Acetaminophen) and Group-C Control (placebo). Group-A 4 rabbits (2M & 2F) were treated with Test 300 mg/kg orally given and 150 mg/kg; reference compound given to Group-B 4 rabbits (2M & 2F) and placebo given to group-C after 15 min each rat was dosed with 2.5% formalin in saline solution 0.1 ml was injected into middle of paw, and monitor for number of licking or scratching's happened with each animal in all groups and compared each group with other in the below table.

[3] = tested on: yeast-induced pyrexia; assay: In vivo comparative antipyretic effect study (Baker's yeast induced pyrexia); design: species or system SD rats; conditions: for Effect on yeast-induced pyrexia (rise in temperature), 3 hours / Effect on yeast-induced pyrexia (rise in temperature), 6 hours / Effect on yeast-induced pyrexia (rise in temperature), 9 hours: SD rats, Test 300 mg/kg orally, reference 150 mg/kg, Mean ± SD, in °C (unit assumed)
Description: The in vivo pharmacological study conducted the anti-pyretic activity of acetaminophen Phenylbutyrate (APPB) formulations in SD rats against yeast induced pyrexia 12 rats (M&F) (Baker's yeast induced antipyretic model 24 hr) After measuring basal TR of the animals, they were injected with a pyrogenic dose of Baker's yeast (0.135 g/kg, i.p.). TR changes were recorded every hour up to 4 h. […] Animals were randomly divided into three groups 4 rats in each group, Group-A Test (Acetaminophen phenylbutyrate) and Group-B reference (Acetaminophen) and Group-C Control (placebo). Group-A 4 rats (2M & 2F) were treated with Test 300 mg/kg orally given and 150 mg/kg reference compound given to Group-B 4 rats (2M & 2F) and placebo given to group-C. From the time baker yeast injection body temperature will rise keep monitor every 30-60 min once and record. And after treatment (time after treatment with test, reference and placebo) the body temperature was monitored rectally, for next 6 hr (0, 0.5, 1.0, 1.5, 2, 3, 4, and 6) using digital thermometer which can capture 0.1 F body temp ad recorded. […] Yeast injection in experimental animals caused significant rise in body temperature at the various time intervals as recorded rectally with the help of a tele-thermometer.

SMILES	treatment related clinical signs ([1]; 500, 1000 and 1500 mg/kg/per day orally for 5 days, M&F SD rats)	survival ([1]; 500, 1000 and 1500 mg/kg/per day orally for 5 days, observation for one week after treatment)	overall safety conclusion ([1]; 500-1500 mg/kg/per day orally for 5 days)	Amplitude of rubbing activity, Mean [2]	Amplitude of rubbing activity, Sum [2]	No. of rubbings [2]	Amplitude of rubbing activity [2]	attenuation of rise in temperature, in words ([3]; 6 and 9 h after yeast injection, in comparison to placebo control group)	attenuation of rise in temperature, in words ([3]; 3 h after yeast injection)	Effect on yeast-induced pyrexia (rise in temperature), 3 hours [3]	Effect on yeast-induced pyrexia (rise in temperature), 6 hours [3]	Effect on yeast-induced pyrexia (rise in temperature), 9 hours [3]	attenuation of rise in temperature, in words ([3]; all time intervals)
CC(=O)N(C(=O)CCCc1ccccc1)c1ccc(O)cc1 [APPB, N-(4-phenylbutanoyl)-N-(4-hydroxyphenyl)acetanyide]	No treatment related clinical signs were noticed	All group animals were survived	safe for prolonged use at higher doses	3.62 s	36.19 s	4 and 3 and 2 and 1	12.64 s and 11.84 s and 6.69 s and 5.02 s	attenuated the raise in temperature in a highly significant manner	significantly attenuated the rise in temperature	1.21 ± 0.13	1.48 ± 0.08	1.83 ± 0.06	–
CC(=O)Nc1ccc(O)cc1 [Acetaminophen, N-(4-hydroxyphenyl)acetamide, reference compound]	–	–	–	2.78 s	16.7 s	1 (2×) and 2 (2×)	3.1 s and 6.7 s and 2.6 s and 4.3 s	–	–	0.83 ± 0.08	1.31 ± 0.23	1.91 ± 0.14	attenuated the rise in temperature to a significant extent at all time intervals
